Read-outs that look alike come from different tables or passages of the source.
Key:
[1] = system: Key Broadleaf Weed and Crop Species; assay: Post-emergent Test II herbicidal activity (Table 5); type: in vivo; details: post-emergence, 336 h, 14 days after application; for pest or weed control at 70 g/ha: application rate 70 g ai/ha; for pest or weed control at 140 g/ha: application rate 140 g ai/ha
Procedure, shortened: (§1)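 Post-emergence foliar spray, 187 L/ha, track sprayer at 43 cm above canopy. Carrier: acetone/water/IPA/DMSO/Atplus 411F/Triton X-155. Plants at 1st–2nd true leaf; subirrigated afterwards; % injury scored visually at 14 d.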

[2] = system: Key Grass and Sedge Weeds as well as Grass Crops; assay: Post-emergent Test II herbicidal activity (Table 6); type: in vivo; details: post-emergence, 336 h; for pest or weed control at 70 g/ha: 70 g ai/ha; for pest or weed control at 140 g/ha: 140 g ai/ha
Procedure, shortened: as §1

[3] = ABUTH: velvetleaf (Abutilon theophrasti), read-out: Visual Growth Reduction (%) 14 Days After Application, ABUTH
[4] = AMARE: redroot pigweed (Amaranthus retroflexus), read-out: Visual Growth Reduction (%) 14 Days After Application, AMARE
[5] = BRSNN: oilseed-rape, canola (Brassica napus), read-out: Visual Growth Reduction (%) 14 Days After Application, BRSNN
[6] = CHEAL: lambsquarters (Chenopodium album), read-out: Visual Growth Reduction (%) 14 Days After Application, CHEAL
[7] = EPHHL: wild poinsettia (Euphorbia heterophylla), read-out: Visual Growth Reduction (%) 14 Days After Application, EPHHL
[8] = HELAN: sunflower (Helianthus annuus), read-out: Visual Growth Reduction (%) 14 Days After Application, HELAN
[9] = VIOTR: wild pansy (Viola tricolor), read-out: Visual Growth Reduction (%) 14 Days After Application, VIOTR
[10] = CYPES: yellow nutsedge (Cyperus esculentus), read-out: Visual Growth Reduction (%) 14 Days After Application, CYPES
[11] = DIGSA: crabgrass (Digitaria sanguinalis), read-out: Visual Growth Reduction (%) 14 Days After Application, DIGSA
[12] = ECHCG: barnyardgrass (Echinochloa crus-galli), read-out: Visual Growth Reduction (%) 14 Days After Application, ECHCG
[13] = ORYSA: rice (Oryza sativa), crop, read-out: Visual Growth Reduction (%) 14 Days After Application, ORYSA
[14] = SETFA: giant foxtail (Setaria faberi), read-out: Visual Growth Reduction (%) 14 Days After Application, SETFA
[15] = SORVU: grain sorghum (Sorghum vulgare), read-out: Visual Growth Reduction (%) 14 Days After Application, SORVU
[16] = TRZSS (wheat, Triticum aestivum), crop, read-out: Visual Growth Reduction (%) 14 Days After Application, TRZSS
[17] = ZEAMX: maize, corn (Zea mays), crop, read-out: Visual Growth Reduction (%) 14 Days After Application, ZEAMX

COC(=O)c1nc(-c2ccc(C(F)F)c(F)c2)cc(N)c1Cl [Compound 196]
0 to 29%: pest or weed control at 70 g/ha [1, 9] | pest or weed control at 140 g/ha [1, 9] | pest or weed control at 70 g/ha [2, 13] | pest or weed control at 140 g/ha [2, 13] | pest or weed control at 70 g/ha [2, 14] | pest or weed control at 140 g/ha [2, 14] | pest or weed control at 70 g/ha [2, 16] | pest or weed control at 140 g/ha [2, 16] | pest or weed control at 70 g/ha [2, 17]
75 to 84%: pest or weed control at 70 g/ha [2, 15] | pest or weed control at 140 g/ha [2, 15] | pest or weed control at 140 g/ha [2, 17]
45 to 59%: pest or weed control at 70 g/ha [2, 11] | pest or weed control at 140 g/ha [2, 11]
30 to 44%: pest or weed control at 70 g/ha [1, 5] | pest or weed control at 140 g/ha [1, 5]
95 to 100%: pest or weed control at 70 g/ha [1, 3] | pest or weed control at 140 g/ha [1, 3] | pest or weed control at 70 g/ha [1, 4] | pest or weed control at 140 g/ha [1, 4] | pest or weed control at 70 g/ha [1, 6] | pest or weed control at 140 g/ha [1, 6] | pest or weed control at 70 g/ha [1, 7] | pest or weed control at 140 g/ha [1, 7] | pest or weed control at 70 g/ha [1, 8] | pest or weed control at 140 g/ha [1, 8] | pest or weed control at 70 g/ha [2, 12] | pest or weed control at 140 g/ha [2, 12]
85 to 94%: pest or weed control at 70 g/ha [2, 10] | pest or weed control at 140 g/ha [2, 10]
